From patent publication US8431708B2, “Fluorescent carbazole compounds for cancer diagnosis” (Academia Sinica, priority 2009, dated 2013)

System: MRC-5 human lung normal fibroblast cells
Experiment: Fluorescence intensity as a function of incubation time in normal cells
Assay type: cell-based
Conditions: MRC-5 cells
Protocol: The fluorescence intensity of 3,6-bis(1-methyl-4-vinylpyridinium)carbazole diiode (BMVC) described in Kang et al., J. Chin. Chem. Soc., 2005, 52, 1069-1072 and Compound 3 were measured in CL1-0 lung cancer cells and MRC-5 human lung normal fibroblast cells as a function of incubation time.

## C[n+]1ccc(C=Cc2ccc3[nH]c4ccc(C=Cc5cc[n+](C)cc5)cc4c3c2)cc1.[I-].[I-] [BMVC, 3,6-bis(1-methyl-4-vinylpyridinium)carbazole diiode]
  fluorescence in normal cells: weak fluorescence in normal cells
